We go through 10 molecules from patent publication US20160081935A1, “DOSAGE FORMS FOR ORAL ADMINISTRATION OF ACTIVE SUBSTANCES” (GIULIANI S.P.A., priority 2013, published 2016).

For data set [1] the following is noted: cited from earlier work.
Data set [2] in a line: Hydrophilicity-lipophilicity index for the active ingredient in single dose (Ip.a.), calculation method. Conditions: for Ip.a.: scale 0-20. The source says:
Where Ip.a. means the hydrophilicity-lipophilicity index for the active ingredient in single dose.
Coefficient X is equal to the solubility of the active ingredient S (mg/liter) divided by the amount of active ingredient expressed in mg per single dose (mg/dose).
A substance that is miscible in any ratio with water has an infinite water solubility, in such case considering a substance as the solute and the other as the solvent may be meaningless. Therefore, in this condition use of the above equation, which presents a horizontal asymptote, is not necessarily required. Instead, the value 20 on the scale of hydrophilicity lipophilicity is arbitrarily assigned, while the value 0, or better tending to 0, is attributed to substances considered insoluble in water.
In the case of molecules considered insoluble, the value on the solubility index scale will tend to zero, and therefore, the scale can be considered for convenience between the values 0-20.

Data set [3] can be described thus: Solubility of active ingredients in water. It counts as physicochemical. Conditions: for Solubility: 20 °C. The text has this:
The solubility (S) of a solute is the maximum amount of solute that dissolves in a fixed amount of a particular solvent at a specified temperature.

Where [4] appears, read: mg per 1000 ml of water at 20° C.-25° C., 0.00001 used for practically insoluble substances.

≈ marks a conversion by molar mass, not a printed value. Where two headings read alike, the source gives them in different places.

For `CS(C)(=O)=O` [Dimethyl sulfone], in data set [1] (at 25° C.), the Solubility is 150 g/L at. Besides, the “S” value in data set [1] (setting [4]) is 150000 mg/L. Besides, in data set [2] (dose 500 mg), the “X = (mg/l)/(mg/dose)” value was 300 (mg/l)/(mg/dose) and the Ip.a. was 20.
Take `CSCC[C@H](N)C(=O)O` [L-Methionine]: the Solubility in data set [1] (at 293 K) is 48 g/l at 293 K. The “S” value in data set [1] (setting [4]) is 48000 mg/L. In data set [2] (dose 300 mg), the “X = (mg/l)/(mg/dose)” value is recorded as 160 (mg/l)/(mg/dose) and the Ip.a. is recorded as 20.
`Cc1cc2nc3c(=O)[nH]c(=O)nc-3n(C[C@H](O)[C@H](O)[C@H](O)CO)c2cc1C` [Riboflavin (form A), Riboflavin]: the Solubility in data set [1] (volume of water that dissolves 1 g, varies with crystal form) is reported as 1 g/3-15 L **.
In turn, `Cc1cc2nc3c(=O)[nH]c(=O)nc-3n(C[C@H](O)[C@H](O)[C@H](O)CO)c2cc1C` [Riboflavin (form B), Riboflavin] showed a Solubility in data set [3] (riboflavin form B, in water) of 80 µg/mL (≈ 213 µM). Besides, in data set [3] (riboflavin form B), the “S” value is 80 mg/L.
As for `Cc1cc2nc3c(=O)[nH]c(=O)nc-3n(C[C@H](O)[C@H](O)[C@H](O)CO)c2cc1C` [Riboflavin], the Solubility was ~80 µg/mL (≈ 213 µM) in data set [3] (deduced experimentally) and 3 to 15 L in data set [1] (1 g in this volume, depending on the crystalline form, Merck Index).
Take `COC1=C(OC)C(=O)C(C/C=C(\C)CC/C=C(\C)CC/C=C(\C)CC/C=C(\C)CC/C=C(\C)CC/C=C(\C)CC/C=C(\C)CC/C=C(\C)CC/C=C(\C)CCC=C(C)C)=C(C)C1=O` [Ubidecarenone]: in data set [1] (in water, in words), the Solubility result is listed as “practically insoluble in water”. The “S” value in data set [1] (setting [4]) was 0.00001 mg/L. Also, in data set [2] (dose 10 mg), the “X = (mg/l)/(mg/dose)” value is 0.000001 (mg/l)/(mg/dose) and the Ip.a. is given as 0.00000.
On to `Oc1ccc(C=Cc2cc(O)cc(O)c2)cc1` [resveratrol], for which the Solubility in data set [1] (in water) is listed as 0.003 g in 100 ml.
Regarding `N[C@@H](Cc1ccc(O)cc1)C(=O)O` [tyrosine], the “S” value in data set [1] (25° C.) was 453 mg/L. The “X = (mg/l)/(mg/dose)” value in data set [2] (dose 45.3 mg) is recorded as 10 (mg/l)/(mg/dose); in data set [2] (dose 453.0 mg), 1 (mg/l)/(mg/dose); in data set [2] (dose 498.3 mg), 0.9091 (mg/l)/(mg/dose); in data set [2] (dose 543.6 mg), 0.8333 (mg/l)/(mg/dose); in data set [2] (dose 588.9 mg), 0.7692 (mg/l)/(mg/dose); in data set [2] (dose 634.2 mg), 0.7143 (mg/l)/(mg/dose). In addition, the Ip.a. in data set [2] (dose 45.3 mg) is reported as 20; in data set [2] (dose 453.0 mg), 19.62; in data set [2] (dose 498.3 mg), 16.85; in data set [2] (dose 543.6 mg), 5.858; in data set [2] (dose 588.9 mg), 0.7258; in data set [2] (dose 634.2 mg), 0.08114.
As for Vitamin A, in data set [1] (in water, in words), the Solubility entry is “practically insoluble in water”. In addition, the “S” value in data set [1] (setting [4]) is 0.00001 mg/L. Further, in data set [2] (dose 0.1 mg), the “X = (mg/l)/(mg/dose)” value is 0.0001 (mg/l)/(mg/dose) and the Ip.a. is recorded as 0.00000.
In the case of Vitamin E, in data set [1] (in water, in words), the Solubility entry was “practically insoluble in water”. Further, the “S” value in data set [1] (setting [4]) is 0.00001 mg/L. In data set [2] (dose 10 mg), the “X = (mg/l)/(mg/dose)” value is recorded as 0.000001 (mg/l)/(mg/dose) and the Ip.a. is on record as 0.00000.
